From patent US5780441A, “Sphingoglycolipid compounds and therapeutic uses thereof” (Kirin Beer Kabushiki Kaisha, priority 1993, dated 1998)

Tests used:
B16 mouse melanoma cells = test: Tumor growth inhibition in mice subcutaneously inoculated with B16 mouse melanoma cells; type: in vivo, mouse (BDF1 female); conditions: 0.1 mg/kg i.v. days 1, 5, 9; maximum during 20 days
Method: ii) Anti-tumor effect of the compound according to the present invention on mice subcutaneously inoculated with B16 mouse melanoma cells.
Experiment was performed with BDF1 female mice (6 weeks) purchased from NIPPON SLC K.K., which were divided into groups consisting of 6 animals. […]. The subcutaneous tumor volumes [(length×width×height)/2] were measured on days 8, 12, 16 and 20 after implantation to determine the tumor growth inhibiting rate (TGIR) of each sample. TGIR was calculated from the following formula: […]
wherein C: tumor volume in the control group, and
T: tumor volume in the sample adminitered groups.
In this connection, Compounds 1-6 and 7-9 were tested in the same time, respectively.

mouse bone marrow cells = test: In vitro mouse bone marrow cell-proliferation-promoting effect (3H-TdR uptake); type: cell-based, mouse (BDF1 female); conditions: 4 days; for Uptake of 3H-TdR (% of control), bone marrow cells: 5760 min
Method: In vitro mouse bone marrow cell-proliferation-promoting effect of the present compound
Experiment was performed with BDF1 female mice (6 weeks old) purchased from NIPPON SLC K.K. Bone marrow cells were removed from the femoral bone of mice by the conventional manner, floated on 10% FCS RPMI 1640, layered over Lympholite M, and centrifuged to give a monocyte fraction. 1×10^6 cells/ml of the monocyte fraction was suspended in 10% FCS RPMI 1640. The cell suspension (100 μl/well) and a vehicle or sample (10 μl/well) which was prepared so as to have a final level shown in Table 2 were added into a wells of round-bottomed 96 well plate, and cultured under the condition of 5% CO2 at 37° C. for 4 days. 0.5 μCi/well of ^3 H-thymidine (^3 H-TdR) was added. After 6 hours, the cells were harvested, and the amount of ^3 H-TdR uptaken into nucleus was measured by a liquid scintillation counter. The ratio of the uptake of ^3 H-TdR in the sample group to that in the vehicle group was calculated and used as the activation rate for promoting in vitro mouse bone marrow cell growth.

lethally irradiated mice = test: Radioprotective effect: life-span prolongation of lethally irradiated mice; type: in vivo, mouse (BDF1 female); conditions: 0.1 mg/kg i.v. days 0, 4, 8, 9 Gy X-ray, groups of 10
Method: Life-span-prolonging effects of the present compounds on lethally irradiated mice.
Experiment was performed with BDF1 female mice (6 weeks old) purchased from NIPPON SLC K.K., which were divided into groups consisting of 10 animals. Mice were irradiated generally with 9 Gy of X-ray with an X-ray generating apparatus, Hitachi, MBR-1520R (radiation day: day 0). Samples at a dose of 0.1 mg/kg were administered into tail vein on days 0, 4 and 8 in order to observe the mortality of the animals for 40 days.
In the table, two experiments are separated by the broken line.

mouse splenic lymphocyte = test: In vitro mouse splenic lymphocyte-proliferation-stimulating effect (3H-TdR uptake); type: cell-based, mouse (BDF1 female); conditions: 2 days; for Uptake of 3H-TdR (% of control), splenic lymphocytes: 2880 min
Method: i) In vitro mouse splenic lymphocyte growth promoting effects of the present compounds
Experiment was performed with BDF1 female mice (6 weeks old) purchased from NIPPON SLC K.K. Spleens were removed from mice, and spleen cells were brayed with slide glasses and hemolized with NH4 Cl. 2×10^6cells/ml of the spleen cells which had been hemolized were suspended in 10% FCS RPMI 1640. The cell suspension (100 μl/well) and a vehicle or sample (10 μl/well) which was prepared so as to have a final level shown in Table 3 were added into wells of a round-bottomed 96 well plate, and cultured under the condition of 5% CO2 at 37° C. for 2 days. 0.5 μCi/well of ^3 H-thymidine (^3 H-TdR) was added. After 6 hours, the cells were harvested, and the amount of ^3 H-TdR uptaken into nucleus was measured by a liquid scintillation counter. The ratio (%) of the uptake of ^3 H-TdR in the sample group to that in the vehicle group was calculated and used as the in vitro mouse splenic lymphocyte-proliferation-stimulating rate.

[1] = system: mixed lymphocyte culture reaction (spleen cells of C57BL/6 and BALB/C mice); test: Mixed lymphocyte culture reaction (MLR); type: cell-based, mouse (C57BL/6 stimulator, BALB/C responder); conditions: 42 hours; for MLR activating rate (%): 2520 min
Method: ii) Mixed lymphocyte culture reaction (MLR) of the compounds of the present invention
Spleen cells were prepared from C57BL/6 mice and treated with 50 μg/ml of mitomycin C for 30 minutes. The treated cells were used as stimulator cells, and the spleen cells of BALB/C mice as responder cells. 2×10^6 cells/ml of the both spleen cells were suspended in 10% FCS RPMI1640 as a culture medium. The above-described cells (50 μl/well) and a sample (10 μl/well) were added into wells of a round-bottomed 96 well plate, and cultured under the condition of 5% CO2 at 37° C. for 42 hours. 0.5 μCi/well of ^3 H-thymidine (^3 H-TdR) was added. After 8 hours, the cells were harvested, and the amount of uptaken ^3 H-TdR was measured by a liquid scintillation counter to calculate the ratio (%) of the uptake of ^3 H-TdR in the sample group to that in the vehicle group as the MLR activating rate.

[2] = system: P388 mouse leukemia cells; test: Life-span-prolonging (anti-tumor) effect on mice subcutaneously inoculated with P388 mouse leukemia cells; type: in vivo, mouse (CDF1 female); conditions: 0.1 mg/kg i.v. on days 1, 5 and 9; for Survival days ave. ± s. d.: all marked ** (p < 0.01)
Method: i) Anti-tumor effect of the compound of the present invention on mice subcutaneously inoculated with P388 mouse leukemia cells.
Experiment was performed with CDF1 female mice (6 weeks) purchased from NIPPON SLC K.K., which were divided into groups consisting of 5 animals. […]. In this connection, lentinan and picibanil were administered intravenously on days 1, 3, 5, 7 and 9 after implantation, and sizofilan was administered subcutaneously on days 1 through 9. Statistical analysis was performed according to the Mann-Whiteney test.

## CCCCCCCCCCCCCCCCCCCCCC[C@@H](O)C(=O)N[C@@H](CO[C@H]1O[C@H](CO)[C@H](O)[C@H](O[C@H]2O[C@H](CO)[C@H](O)[C@H](O)[C@H]2NC(C)=O)[C@H]1O[C@H]1O[C@H](CO)[C@@H](O)[C@H](O)[C@H]1O)[C@H](O)[C@H](O)CCCCCCCCCCCCCC [Compound 6, O-(N-acetyl-2-amino-2-deoxy-α-D-galactopyranosyl)-(1→3)-O-[α-D-glucopyranosyl-(1→2)]-O-α-D-galactopyranosyl-(1→1)-(2S,3S,4R)-2-amino-N-[(R)-2-hydroxytetracosanoyl]-1,3,4-octadecanetriol]
B16 mouse melanoma cells
  Maximum tumor growth inhibiting rate, TGIR (%): 91.2%
Mouse bone marrow cells; 10^-1 μg/ml
  Uptake of 3H-TdR (% of control), bone marrow cells: 431 % of control
Mouse bone marrow cells; 10^-2 μg/ml
  Uptake of 3H-TdR (% of control), bone marrow cells: 142 % of control
Lethally irradiated mice; day 10, 0.1 mg/kg
  Number of surviving mice: 10 mice
Lethally irradiated mice; day 15, 0.1 mg/kg
  Number of surviving mice: 10 mice
Lethally irradiated mice; day 20, 0.1 mg/kg
  Number of surviving mice: 8 mice
Lethally irradiated mice; day 25, 0.1 mg/kg
  Number of surviving mice: 8 mice
Lethally irradiated mice; day 30, 0.1 mg/kg
  Number of surviving mice: 8 mice
Lethally irradiated mice; day 35, 0.1 mg/kg
  Number of surviving mice: 8 mice
Lethally irradiated mice; day 40, 0.1 mg/kg
  Number of surviving mice: 8 mice
Mouse splenic lymphocyte; 10^0 μg/ml
  Uptake of 3H-TdR (% of control), splenic lymphocytes: 883 % of control
Mouse splenic lymphocyte; 10^-1 μg/ml
  Uptake of 3H-TdR (% of control), splenic lymphocytes: 979 % of control
Mouse splenic lymphocyte; 10^-2 μg/ml
  Uptake of 3H-TdR (% of control), splenic lymphocytes: 649 % of control
Mouse splenic lymphocyte; 10^-3 μg/ml
  Uptake of 3H-TdR (% of control), splenic lymphocytes: 543 % of control
[1]; 1 × 10^0 μg/ml
  MLR activating rate (%): 228%
[1]; 1 × 10^-1 μg/ml
  MLR activating rate (%): 194%
[2]
  Survival days ave. ± s. d.: 15.8 ± 1.1 days
[2]; survival vs vehicle
  T/C (%): 123%

## CCCCCCCCCCCCCCCCCCCCCC[C@@H](O)C(=O)N[C@@H](CO[C@H]1O[C@H](CO)[C@H](O)[C@H](O[C@H]2O[C@H](CO)[C@H](O)[C@H](O)[C@H]2NC(C)=O)[C@H]1O[C@H]1O[C@H](CO)[C@@H](O)[C@H](O)[C@H]1O)[C@H](O)[C@H](O)CCCCCCCCCCCC(C)C [Compound 7, O-(N-acetyl-2-amino-2-deoxy-α-D-galactopyranosyl)-(1→3)-O-[α-D-glucopyranosyl-(1→2)]-O-α-D-galactopyranosyl-(1→1)-(2S,3S,4R)-2-amino-N-[(R)-2-hydroxytetracosanoyl]-16-methyl-1,3,4-heptadecanetriol]
B16 mouse melanoma cells
  Maximum tumor growth inhibiting rate, TGIR (%): 78.1%
Mouse bone marrow cells; 10^-1 μg/ml
  Uptake of 3H-TdR (% of control), bone marrow cells: 451 % of control
Mouse bone marrow cells; 10^-2 μg/ml
  Uptake of 3H-TdR (% of control), bone marrow cells: 478 % of control
Lethally irradiated mice; day 10
  Number of surviving mice: 10 mice
Lethally irradiated mice; day 15, 0.1 mg/kg
  Number of surviving mice: 8 mice
Lethally irradiated mice; day 20, 0.1 mg/kg
  Number of surviving mice: 6 mice
Lethally irradiated mice; day 25, 0.1 mg/kg
  Number of surviving mice: 3 mice
Lethally irradiated mice; day 30, 0.1 mg/kg
  Number of surviving mice: 3 mice
Lethally irradiated mice; day 35, 0.1 mg/kg
  Number of surviving mice: 3 mice
Lethally irradiated mice; day 40, 0.1 mg/kg
  Number of surviving mice: 3 mice
Mouse splenic lymphocyte; 10^0 μg/ml
  Uptake of 3H-TdR (% of control), splenic lymphocytes: 927 % of control
Mouse splenic lymphocyte; 10^-2 μg/ml
  Uptake of 3H-TdR (% of control), splenic lymphocytes: 705 % of control
Mouse splenic lymphocyte; 10^-3 μg/ml
  Uptake of 3H-TdR (% of control), splenic lymphocytes: 593 % of control
[1]; 1 × 10^0 μg/ml
  MLR activating rate (%): 234%
[1]; 1 × 10^-1 μg/ml
  MLR activating rate (%): 195%
[2]
  Survival days ave. ± s. d.: 15.8 ± 0.9 days
[2]; survival vs vehicle
  T/C (%): 123%

## CCCCCCCCCCCCCCCCCCCCCC[C@@H](O)C(=O)N[C@@H](CO[C@H]1O[C@H](CO)[C@H](O)[C@H](O[C@H]2O[C@H](CO)[C@H](O)[C@H](O)[C@H]2NC(C)=O)[C@H]1O[C@H]1O[C@H](CO)[C@@H](O)[C@H](O)[C@H]1O)[C@H](O)[C@H](O)CCCCCCCCCCCCC [Compound 2, O-(N-acetyl-2-amino-2-deoxy-α-D-galactopyranosyl)-(1→3)-O-[α-D-glucopyranosyl-(1→2)]-O-α-D-galactopyranosyl-(1→1)-(2S,3S,4R)-2-amino-N-[(R)-2-hydroxytetracosanoyl]-1,3,4-heptadecanetriol]
B16 mouse melanoma cells
  Maximum tumor growth inhibiting rate, TGIR (%): 82.6%
Mouse bone marrow cells; Mus musculus, Bone marrow cell, 96 h, 10^-1 μg/ml, read-out: Uptake of 3H-TdR (% of control), bone marrow cells
  activity at 0.1 µg/mL: 268%
Mouse bone marrow cells; Mus musculus, Bone marrow cell, 96 h, 10^-2 μg/ml, read-out: Uptake of 3H-TdR (% of control), bone marrow cells
  activity at 0.01 µg/mL: 276%
Lethally irradiated mice; day 10
  Number of surviving mice: 10 mice
Lethally irradiated mice; day 15
  Number of surviving mice: 10 mice
Lethally irradiated mice; day 20
  Number of surviving mice: 10 mice
Lethally irradiated mice; day 25
  Number of surviving mice: 9 mice
Lethally irradiated mice; day 30
  Number of surviving mice: 9 mice
Lethally irradiated mice; day 35
  Number of surviving mice: 9 mice
Lethally irradiated mice; day 40
  Number of surviving mice: 9 mice
Mouse splenic lymphocyte; Mus musculus, Splenic lymphocyte, 48 h, 10^0 μg/ml, read-out: Uptake of 3H-TdR (% of control), splenic lymphocytes
  activity at 1 µg/mL: 890%
Mouse splenic lymphocyte; Mus musculus, Splenic lymphocyte, 48 h, 10^-1 μg/ml, read-out: Uptake of 3H-TdR (% of control), splenic lymphocytes
  activity at 0.1 µg/mL: 735%
Mouse splenic lymphocyte; Mus musculus, Splenic lymphocyte, 48 h, 10^-2 μg/ml, read-out: Uptake of 3H-TdR (% of control), splenic lymphocytes
  activity at 0.01 µg/mL: 508%
Mouse splenic lymphocyte; Mus musculus, Splenic lymphocyte, 48 h, 10^-3 μg/ml, read-out: Uptake of 3H-TdR (% of control), splenic lymphocytes
  activity at 0.001 µg/mL: 270%
[1]; Mus musculus, Lymphocyte, 1 × 10^0 μg/ml, read-out: MLR activating rate (%)
  activity at 1 µg/mL: 213%
[1]; Mus musculus, Lymphocyte, 1 × 10^-1 μg/ml, read-out: MLR activating rate (%)
  activity at 0.1 µg/mL: 158%
[2]
  Survival days ave. ± s. d.: 15.8 ± 0.5 days
[2]; Mus musculus, P388, iv, survival vs vehicle, read-out: T/C (%)
  response vs control in vivo at 0.1 mg/kg: 123%
